Measured values reported in paper PMC5145181, “Structural Mapping and Functional Characterization of Zebrafish Class B G-Protein Coupled Receptor (GPCR) with Dual Ligand Selectivity towards GLP-1 and Glucagon” (PLoS ONE, 2016).
Where two headings read alike, the source gives them in different places. Values belong to the substance of their own block, whether it stands above or below them.

Tests used:
[1] = system: GLP-1R; settings: cited from earlier work
From the text: Receptors for GLP-1 (GLP-1R) and glucagon (GCGR) belong to the class B GPCRs that mediate the physiological effects of the peptides within the glucagon-secretin peptide family. Their structures are characterized by large amino terminal extracellular domains which are about 140 amino acids long and an intracellular core consisting of a cytoplasmic domain and seven transmembrane helices (7TMs) connected through three extracellular and three intracellular loops.

[2] = system: fish hepatocytes; settings: GLP-1 from both human and fish; cited from earlier work
From the text: Our approach to understanding the selectivity of ligand recognition by the receptors for the gluco-regulatory peptides, GLP-1 and glucagon, has been to functionally characterize the ligand selectivity of GCGRs and GLP-1Rs from non-mammalian vertebrates and to compare them to the ligand selectivity of their mammalian counterparts. […] In the abs ...

[3] = molecular target: recombinant glucagon receptor from the goldfish C. auratus (gfGCGR); settings: 95% CI: zebrafish glucagon 4.3–18 nM; goldfish glucagon 0.31–1 nM; cited from earlier work
From the text: To be consistent with our initial characterization of this receptor which we referred to as zfGLP-1R [41] and the characterization of the gfGCGR [18] we used only the sequences of zfGLP-1 and zf glucagon used in those studies (shown in Fig 1) and not the second zfGLP-1 and second zebrafish glucagon found in the zebrafish genome.

[4] = system: goldfish GCGR; settings: 95% CI: goldfish glucagon 1.3–7 nM; human glucagon 4.7–20 nM; cited from earlier work
From the text: In those studies the EC50 for goldfish glu ...

[5] = system: zfGPCR (dual zfGLP-1R/GCGR); experiment: Competitive binding, displacement of 125I-exendin(9–39) from recombinant zfGPCR expressed in COS-7 cells; set-up: species or system zebrafish (Danio rerio); settings: 125I-exendin(9–39) tracer, intact COS-7 cells, 16–18 h at 4°C, triplicate wells, NSB with 1 μM peptide, n = 4 zfGLP-1, n = 3 hGLP-1, zf glucagon, exendin-4, n = 5 exendin(9–39). 95% CI: zfGLP-1 225–371, hGLP-1 121–262, zf glucagon 78.5–144, h glucagon 33.6–134, exendin-4 0.84–1.17, exendin(9–39) 3.42–5.17
Procedure: (§1) Competitive binding experiments were performed with the recombinant zfGPCR expressed in COS-7 cells, as described previously. Transient transfections of pcDNA3 vector containing recombinant zfGPCR into COS-7 cells were performed as described below for the stimulation of intracellular cAMP. Cells were grown in 100-mm plates to confluence and 24 hr after transfection they were trypsinized and transferred to 24 well plates (Biocore, Becton Dickinson). 24–48 hr later each peptide (pM to μM) was added in triplicate wells followed by the addition of an aliquot (100,000 cpm/well) of either ^125I-hGLP-1(7–36)amide or ^125I-exendin(9–39) (each radioactive peptide tracer at […] receptor grade, NEN Life Science Products, Boston, MA). Peptides, radioiodinated ^125I-tracer and cells were incubated for 16–18 h at 4°C. After incubation cells were washed twice with ice-cold PBS, lysed with 1N NaOH and radioactivity measured in a γ-counter. A single dose-displacement curve for each peptide was obtained in a single 24-well plate.
Non-specific binding was determined in the presence of 1μM of each peptide.
(§2) IC50 values represent an average of n experiments as described above and were calculated by the Prism 4 software. Displacement curves from the competitive binding experiments were plotted by Origin 9 software (OriginLab). Error bars are shown for data points in the displacement curves obtained in two or more rounds of transfections.
(§3) Results from the functional experiments with recombinant zfGPCR transiently expressed in COS-7 cells were analyzed by the Prism 4 software using a four-parameter logistic sigmoidal curve fit model. Data points represent mean +/- SEM.
They are shown together with the 95% confidence intervals (CIs). The F-test was used to compare the IC50 value for zfGLP-1 with the IC50 values for the other tested peptides obtained in the competitive binding experiments shown when ^125I-hGLP-1(7–36)amide or ^125I-exendin (9–39) were used as tracers. Following conditions were used for the curve fitting: (i) in the normalization step y = 0%was set to be 0, y = 100% was set to be 100; (ii) constrained curve-fit parameters were set to be equal to 0.00 on the bottom, 100 on top; (iii) IC50 was not constrained; (iv) the selected option in the non-linear regression curve fit was intended on finding out whether the best-fit of a selected parameter (IC50) differs between two sets.

[6] = system: zfGPCR (dual zfGLP-1R/GCGR); experiment: Intracellular cAMP in COS-7 cells expressing recombinant zfGPCR; format: cell-based, zebrafish (Danio rerio); settings: for EC50: 20 min at 37°C, pH 7.4, 1 mM 1-methyl-3-isobutylxanthine, enzyme immunoassay, n = 9 zfGLP-1, n = 5 hGLP-1, zf glucagon, h glucagon, n = 3 exendin-4, n = 6 zfGLP-2. 95% CI: zfGLP-1 0.24–0.80, hGLP-1 0.65–1.63, zf glucagon 0.20–2.9, h glucagon 0.18–1.63, exendin-4 0.07–0.46, zfGLP-2 16.8–72.6
Procedure: The ability of different peptides to stimulate the increase in intracellular cAMP levels following their binding to the recombinant zfGPCR transiently expressed in COS-7 cells was measured using methods that we developed for non-mammalian G-protein coupled receptors. In brief, COS-7 cells were grown to confluence in 100-mm plates at 37°C and transfected with the pcDNA3 vector containing the recombinant zfGPCR using the TransFast transfection reagent (Promega, Madison, WI) at a […] of plasmid DNA (25 ug) to transfection reagent (75 μL). After 24 h cells were trypsynized and transferred to 24-well plates (Biocore, Becton-Dickinson, Franklin Lakes, NJ). Peptides (pM-μM) were added 24–48 h later. Cells were equilibrated prior to the addition of peptides with the assay buffer (DMEM, 0.5% BSA, 20mM HEPES, 1mM 1-methyl-3-isobutylxanthine, 0.1mM phenylmethylsulfonyl fluoride, pH 7.4) for 20 min at 37°C. Each peptide concentration was added in triplicate wells for 20 min at 37°C. cAMP dose-response curves for each tested peptide were obtained in a single 24-well plate. In all experiments, forskolin (100 nM) (Sigma-Aldrich, St.Louis, MO) was added as a positive control, also in triplicate wells, in the same 24-well plate as the tested peptide. After incubation, the media was removed and cells were lysed by the addition of cold ethanol (1 mL per well). Cell debris was pelleted by centrifugation (10,000 g) for 10-min, and supernatants were dried using a vacuum concentrator. Samples were resuspended in an assay buffer provided by the manufacturer and cAMP levels were quantified by the enzyme immunoassay kit (Cayman Chemicals, Ann Arbor, MI) according to the manufacturer’s instructions. The basal concentration of cAMP (in the absence of peptides) was taken as 1.00, and was in the range of 9–16 pmol/well. Results are presented as a fold-increase over basal.
Results were plotted by the Origin 9 software (OriginLab), and EC50 values were calculated by Prism 4 software as described below.
as §3
They are shown together with the 95% confidence intervals (CIs).
Comparison of EC50 values calculated from the zfGLP-1 cAMP dose-response curve with the EC50 calculated from the cAMP dose-response curves for each of the tested peptides were performed by the F-test from the Prism 4 software which compares the fitted mid-point (EC50) from the data sets of the two dose-response curves under comparison. Conditions of analysis were as follows: (i) in the normalization step y = 0% was set to be 1 (the basal cAMP concentration taken as 1); y = 100% was set to be the largest value in each data set; (ii) constrained curve-fit parameters were set to be equal to 0.00 on the bottom, 100 on top; (iii) EC50 was not constrained; (iv) the selected option in the non-linear regression curve fit was intended on finding out whether the best-fit of a selected parameter (EC50) differs between two sets.

[7] = molecular target: recombinant glucagon receptor from the frog R. tigrina rugulosa; set-up: method as in PMID 10471837; settings: cited from earlier work
[8] = system: recombinant hGCGR; set-up: method as in PMID 7507321; settings: cited from earlier work
[9] = molecular target: glucagon receptor in rat hepatocytes; settings: cited from earlier work
Procedure: (§4) Moreover, EC50’s for human and zebrafish glucagon obtained in our study were within similar concentration range as the EC50 ‘s determined in experiments with recombinant glucagon receptors from other vertebrate species. Thus, EC50‘s for human glucagon obtained from the cAMP assays performed with the recombinant glucagon receptor from the frog and the recombinant rat glucagon receptor were 0.8 nM [19] and 0.7nM [13], respectively, and are similar to the EC50 value of 1nM determined for the glucagon receptor in rat hepatocytes.

[10] = molecular target: recombinant glucagon receptor from the frog; settings: cited from earlier work
Procedure: as §4

[11] = molecular target: recombinant rat glucagon receptor; settings: cited from earlier work
Procedure: as §4

[12] = system: hGCGR mutant Cys240 to Tyr240; settings: cited from earlier work
From the text: In the 7TM crystal structure of hGCGR [30], the side chain of Tyr239^3.44 in TM3 interacts with the backbone atoms of Gly359^6.50 (3.5Å) and Leu358^6.49 (2.8Å) in TM6. Tyr239^3.44 is conserved only in hGLP-1R and is substituted with Asn23 ...

[13] = system: hGCGR mutant Glu362 to alanine; settings: reduced surface expression; cited from earlier work
From the text: Our inspection of the 7TM crystal structure of hGCGR [30] also identified a hydrophilic cluster formed by a salt bridge between Lys187^2.60 in TM2 and Glu362^6.53 in TM6, and hydrophilic portions of residues Tyr149^1.47 in TM1, Gln232^2.38, Asp238^2.43, […] in TM2; His361^6.52 in TM6, and Asp385^7.42, Ser389^7.46 Gln392^7.49 in TM7. This TM7-TM6-TM2-TM1 cluster offers a hydrophilic environment embedded deep inside the hydrophobic transmembrane.

[14] = system: zfGPCR (dual zfGLP-1R/GCGR); experiment: Competitive binding, displacement of 125I-hGLP-1(7–36)amide from recombinant zfGPCR expressed in COS-7 cells; set-up: species or system zebrafish (Danio rerio); settings: 125I-hGLP-1(7–36)amide tracer, intact COS-7 cells, 16–18 h at 4°C, triplicate wells; NSB with 1 μM peptide; n = 3 hGLP-1, n = 2 zf glucagon, exendin-4, exendin(9–39), n = 1 zfGLP-1. 95% CI: zfGLP-1 1.2–3.6; hGLP-1 0.98–13; zf glucagon 1.4–4.0; exendin-4 0.24–0.92; exendin(9–39) 2.4–14
Procedure: as §1
Dose-response curves for zfGLP-1, zfGLP-2 and zebrafish PACAP-38 were obtained from one transfection. […] Lower rounds of transfections were performed in experiments that replicated our published results from the competitive binding experiments with the displacement of ^125I-hGLP-1(7–36)amide binding to zfGPCR [41] and thus represented positive controls for these studies.
as §2, §3
They are shown together with the 95% confidence intervals (CIs). […]

[15] = system: hGLP-1R mutant Asn318 to alanine; set-up: method as in PMID 23479653; settings: Asn318 mutated to alanine, cell surface expression unchanged; cited from earlier work
[16] = system: zfGPCR (dual zfGLP-1R/GCGR); settings: displacement of 125I-hGLP-1(7–36)amide; read-out: IC50 in competitive binding (earlier characterization of the zfGPCR); cited from earlier work
Procedure: Furthermore, exendin-4, an agonist of hGLP-1R, displaced in competitive binding experiments the binding of ^125I-hGLP-1(7–36) amide to the zebrafish receptor with an IC50 of 0.9 nM, which is within a similar concentration range as the one determined in competitive binding experiments with recombinant hGLP-1R [41] and rGLP-1R [23]. However, subsequent phylo ...

[17] = system: hGLP-1R mutant Ser155 to alanine; settings: Ser152 in hGCGR = Ser155 in hGLP-1R, mutated to alanine; cited from earlier work
From the text: Among those are TM1-TM7 interaction between Ser152^1.50 and Ser 390^7.47 in which Ser152^1.50 in TM1 in hGCGR forms a hydrogen bond with the backbone of Ser390^7.47 in TM7.

Substance: GLP-1: refers to both GLP-1(7–37) and GLP-1(7–36)amide
stimulation of intracellular cAMP, GLP-1 vs exendin-4 [1]: to a similar degree | gluconeogenesis [2]: stimulated gluconeogenesis

Substance: goldfish glucagon: glucagon of goldfish, literature comparison (HSEGTFSNDYSKYLETRRAQDFVEWLMNS; Glucagon; UniProt P79695 50-78, looked up)
IC50 [3]: 0.56 nM | EC50 [4]: 3 nM

EC50 [6]: 0.54 nM
Substance: human glucagon: synthetic human glucagon purchased from Bachem
IC50 [5]: 67 nM | IC50 [7]: 12 nM | IC50 [8]: 5 nM | EC50 [4]: 9.7 nM | EC50 [9]: 1 nM | EC50 [10]: 0.8 nM | EC50 [11]: 0.7 nM | effect of mutation on binding to glucagon [12]: did not have an effect | effect of mutation on binding of glucagon [13]: decrease in the binding

Substance: exendin(9–39)
IC50 [14]: 5.8 nM | IC50 [5]: 4.21 nM | behaviour at the zfGPCR ([6]; cAMP assay): behaved as an antagonist | stimulatory effect on cAMP levels ([6]; even at 1μM, n = 4): did not show any stimulatory effects | receptor affinity [15]: reduced the receptor’s affinity

EC50 [6]: 1 nM
Substance: hGLP-1: Synthetic hGLP-1(7–36)amide (referred throughout as hGLP-1), purchased from Bachem
IC50 [14]: 3.6 nM | IC50 [5]: 178 nM | IC50 [16]: 0.9 nM | receptor affinity [17]: small reduction of receptor affinity | receptor affinity [15]: reduced the receptor’s affinity
